In this test the target is T1, Soluble acetylcholine receptor (Aplysia californica, UniProt Q8WSF8).
T1 sequence (Q8WSF8 whole entry): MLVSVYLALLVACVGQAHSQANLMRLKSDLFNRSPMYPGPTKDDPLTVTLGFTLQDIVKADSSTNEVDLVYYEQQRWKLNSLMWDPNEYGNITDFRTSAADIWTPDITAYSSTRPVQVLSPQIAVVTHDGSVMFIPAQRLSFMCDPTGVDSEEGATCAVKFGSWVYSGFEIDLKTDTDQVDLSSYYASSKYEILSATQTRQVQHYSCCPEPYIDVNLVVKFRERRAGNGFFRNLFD
The test can be described thus: Displacement [125I]alpha-bungarotoxin from untagged Aplysia californica AChBP expressed in Sf9 cells by competitive binding assay.

`C[C@@H]1NC(=O)[C@@H]2CSSC[C@H](NC(=O)CN)C(=O)N[C@@H](CSSC[C@@H](C(=O)O)NC(=O)[C@H](CCCNC(=N)N)NC(=O)[C@H](Cc3c[nH]c4ccccc34)NC1=O)C(=O)N[C@@H](CO)C(=O)N[C@@H](CC(=O)O)C(=O)N1CCC[C@H]1C(=O)N[C@@H](CCCNC(=N)N)C(=O)N2` gave a 50% inhibitory concentration (IC50) of 33 nM. In other words, the double-digit nanomolar range.

What is called IC50 is the concentration that gives 50% inhibition. A low value points to greater potency in that assay.

(Values after ChEMBL document CHEMBL3758090, “Investigation of α-conotoxin unbinding using umbrella sampling” (Bioorg Med Chem Lett, 2016).)
